These results are taken from patent publication US7943795B2, “Vitamin D receptor modulators” (Eli Lilly and Company, priority 2004, dated 2011).

Each structure is given as a SMILES string.

Series [1] can be described thus: Mouse hypercalcemia assay. The class given is in vivo. How it is done:
5. The Mouse Hypercalcemia test is described in the “Assay” section of the Description, infra.
The Mouse Hypercalcemia Assay
The Mouse Hypercalcemia Assay is a six day hypercalcemia test for toxicity and selectivity. Acceptable test results are levels greater than 30 μg/kg/day. Preferred assay results are levels greater than 300 μg/kg/day.
Weanling, virus—antibody-free, five to six weeks old female DBF mice (Harlan, Indianapolis, Ind.) are used for all the studies. Animals are allowed to acclimate to local vivarium conditions for 2 days. Mice are maintained on a 12 hr light/dark cycle at 22° C. with ad lib access to food (TD 5001 with 1.2% Ca and 0.9% P, Teklad, Madison, Wis.) and water. The animals then are divided into groups with 4-5 mice per group. Different doses of test compounds prepared in 10% ethanol and 90% sesame oil, or in an aqueous suspension of sodium lauryl sulfate and CMC (the latter formulation for acidic compounds) are administered to mice orally via gavage for 6 days. 1α-25(OH)2D3 0.5 μg/kg/d was also given to one group of mice as the positive control. Serum ionized calcium is evaluated at 6 hours after the last dosing under isoflurane anesthesia by Ciba-Corning Ca++/PH Analyzer, (Model 634, Chiron Diagnostics Corp., East Walpole, Mass.). Raw data of group differences is assessed by analysis of variance (ANOVA) using Fisher's protected least significant difference (PLSD) where the significance level was P<0.05.

For the next series, the system named is rat osteocalcin promoter. Kind of series: OCN (osteocalcin) promoter assay. The class given is cell-based. As to conditions: RG-15 (ROS 17/2.8) cells, 48 hr treatment, luciferase reporter. How it is done:
4. The OCN Promoter test is described in the “Assay” section of the Description, infra.
The OCN (Osteocalcin) Promoter Assay
The OCN Promoter Assay is an indicator and marker for osteoporosis. Desired assay results are EC50 less than or equal to 325 nM. Preferred assay results are less than 50 nM.
The activation of osteocalcin by VDR ligands is evaluated in a rat osteoblast-like cell line RG-15 (ROS 17/2.8) stably expressing rat osteocalcin promoter fused with luciferase reporter gene. The stable cell lines are established as reported before (Activation of Osteocalcin Transcription involves interaction of protein kinase A- and Protein kinase C-dependent pathways. Boguslawski, G., Hale, L. V., Yu, X.-P., Miles, R. R., Onyia, J. E., Santerre R. F., Chandrasekhar, S. J Biol. Chem. 275, 999-1006, 2000). Confluent RG-15 cells maintained in DMEM/F-12 medium (3:1) containing 5% FBS, 300 μg/ml G418 and at 37° C. under 5% CO2/95% air atmosphere are trypsinized (0.25% trypsin) and plated into white opaque 96-well cell culture plates (25000 cells/well). After 24 hr, cells (in DMEM/F-12 medium+2% FBS) are treated with various concentrations of compounds, dissolved in DMSO. The final DMSO concentration remains at 0.01% (v/v). After 48 hr treatment, the medium is removed, cells are lysed with 50 μl of lysis buffer (From Luciferase reporter assay system, Roche Diagnostics, Indianapolis, Ind.) and then assayed for luciferase activity using the Luciferase Reporter Gene Assay kit from Boehringer Mannheim as per manufacturer's specifications.
For orientation: A reporter such as luciferase makes a cellular process visible.

Another series addresses T1, RXR-VDR heterodimer (Homo sapiens, UniProt P11473).
T1 construct: add the Reporter gene pFR-LUC; and add the Gal-4-RXR-DEF and VP16-VDR-LBD; expressed in transfected cells; host or cells: SaOS-2 cells
T1 sequence (P11473 127-423 limits assumed): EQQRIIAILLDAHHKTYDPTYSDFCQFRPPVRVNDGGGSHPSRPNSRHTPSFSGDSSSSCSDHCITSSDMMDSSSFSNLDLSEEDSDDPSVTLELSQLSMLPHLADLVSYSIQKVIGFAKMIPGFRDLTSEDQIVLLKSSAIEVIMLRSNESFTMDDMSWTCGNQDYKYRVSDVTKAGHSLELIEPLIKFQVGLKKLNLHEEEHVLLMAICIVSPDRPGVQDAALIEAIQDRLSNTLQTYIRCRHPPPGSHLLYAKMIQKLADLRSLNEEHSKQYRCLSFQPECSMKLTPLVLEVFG
T1 sequence (P19793 201-462 partner limits assumed): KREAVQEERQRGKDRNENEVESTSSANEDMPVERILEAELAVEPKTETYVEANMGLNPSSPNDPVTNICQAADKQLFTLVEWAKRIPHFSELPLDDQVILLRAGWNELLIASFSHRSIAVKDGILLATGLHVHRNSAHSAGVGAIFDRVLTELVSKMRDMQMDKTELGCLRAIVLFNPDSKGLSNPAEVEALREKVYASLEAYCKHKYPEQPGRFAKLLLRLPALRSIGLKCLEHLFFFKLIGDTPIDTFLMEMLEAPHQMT
Kind of series: RXR-VDR heterodimerization (SaOS-2 cells) test. The class given is cell-based. As to conditions: Gal-4-RXR-DEF / VP16-VDR-LBD, luciferase reporter. How it is done:
2. The RXR-VDR heterodimerization (SaOS-2 cells) test is described in the “Assay” section of the Description, infra.
1. The RXR-VDR Heterodimer Assay:
This assay provides the VDR activity of a test compound. It is desirable to have low EC50 values for a compound in this assay. […] Desired assay results are EC50 values less than or equal to 600 nM. Preferred assay results are less than 250 nM, and most preferably less than 150 nM.
(1) Materials and Method for RXR-VDR Heterodimerization Assay Transfection
• Method: Reagents: FuGENE 6 Transfection Reagent (Roche Cat #1 814 443); Growth Media: D-MEM High Glucose (Gibco BRL Cat #11054-020), 10% heat inactivated FBS, (Gibco BRL Cat#10092-147) 1% antibiotic-antimycotic (Ab-Am); (Gibco BRL Cat #15240-062). • Cells: Grow SaOS-2 cells in T-150 cm^2 culture flasks in growth media keeping the density at 5-6×10^5 cells/ml. Passage cells 1:3 twice a week. Add Trypsin EDTA (Gibco BRL Cat #25300-020) and incubate. Resuspend cells in plating media and transfer into growth media. • Wash Media: HBSS Low Glucose Without Phenol Red (Gibco BRL Cat #14175-095), 1% Ab-Am. Plating Media: D-MEM Low Glucose Without Phenol Red (Gibco BRL Cat #11054-020), 1% Ab-Am; D-MEM; 10% Stripped FBS (Hyclone Cat#SH30068.03 Lot #AHM9371); • Transfection/Treatment Media: D-MEM Low Glucose Without Phenol Red only; T-150 cm^2 culture flask: Use Corning Coastar T-150 cm^2 culture flask (Cat #430825) to grow the cells. • Luciferase Assay Reagent: Use Steady-Glo Luciferase Reagent from Promega (Cat #E2550) Consists of: E2533 Assay Substrate, lyophilized product and E2543 Assay Buffer. Thaw at room temperature and store. • Cell Harvesting/Count: Aspirate media from culture flask, rinse cells with HBSS and aspirate. Add trypsin and incubate. When cells appear detached, resuspend cells in growth media. Transfer into a new flask with fresh growth media for passaging the cells. Plate 96 well plates and two extra plates. Mix the cell suspension using pipette. To count the cells using a Hematocytometer. • Plate seeding: Use plating media 10% Stripped FBS in D-MEM Low Glucose, without Phenol Red, 1% Ab-Am. Plate 14 plates @ 165 μl/well. In sterile flask add cell suspension to plating media and mix. Add cells/well. Place the cells in the incubator. Cells should be about 75% confluent prior to transfection. DAY 2: Transfection: Step 1, DNA and Media: Add plain DMEM media to tubes for mixing the DNA; add the Reporter gene pFR-LUC; and add the Gal-4-RXR-DEF and VP16-VDR-LBD. Step 2, FuGENE and Media: Prepare plain DMEM media in a tubes for mixing FuGENE, add FuGENE 6 Transfection Reagent, and incubate. Step 3, FuGENE, DNA and Media Complex: Add FuGENE Media complex from step 2 to DNA Media complex from step 1 and incubate. Step 4, FuGENE, DNA and Media Complex to 96 well plate: Add FuGENE-DNA-Media complex from step 3 to each plate. Incubate. • Day 3: Dosing: Treatment preparation. Allow for transfection time. Make a stock solution of the compounds in DMSO and vortex until all the compounds have been dissolved. Further dilute in D-MEM (Low Glucose—without Phenol Red) Add compounds in quadruplicate to give desired final volume then incubate. • Day 4: Luciferase Assay: Read the plates after drug treatment. Remove part of media from all the wells and leave remainder. Add Steady-Glo Luciferase Reagent mixture/wells and incubate. Count each well using a Luminescence counter, Top Count NXT by Packard preferably set a delay between plates to reduce the background.

The next series deals with T2, VDR (Homo sapiens, UniProt P11473).
T2 construct: the receptor expression vector pGal4-VDR-LBD (10 ng); expressed in transfected cells; host or cells: Caco-2 cells
T2 sequence (P11473 127-423 limits assumed): T1 sequence (P11473 127-423 limits assumed)
The experiment in a line: VDR CTF (Caco-2 cells) co-transfection assay. The class given is cell-based. The settings on record: pGal4-VDR-LBD, luciferase reporter. How it is done: 3. The VDR CTF (Caco-2 cells) test is described in the “Assay” section of the Description, infra.
The Caco-2 cell assay is an indicator for the undesirable condition of hypercalcemia. This co-transfection assay is a surrogate assay for in vivo calcemic activity of VDR ligands. It is desirable to have high EC50 values for a test compound in this assay. The higher the EC50 values for a compound the less calcemic it will be in vivo. Desired assay results are EC50 greater than or equal to 300 nM. Preferred assay results are greater than 1000 nM.
Caco-2 cells, grown in phenol red free, DMEM (Invitrogen, Carlsbad, Calif.) containing 10% charcoal-stripped FBS (Hyclone, Logan, Utah), are transfected with Fugene 6 reagent (Roche Diagnostics, Indianapolis, Ind.). Cells (5000/well) are plated 18 h before transfection in a 96 well plate. The cells are transfected with Gal4-responsive reporter pFRLuc (150 ng, Stratagene, La Jolla Calif.) and the receptor expression vector pGal4-VDR-LBD (10 ng), along with Fugene 6 reagent (0.2 μl/well). The DNA-Fugene complex is formed by incubating the mixture for 30 m at room temperature. The cells are transfected in triplicate for 5 h, and treated with various concentrations of VDR ligands (from 0.01 nM to […] concentration range) 18 h post-transfection. The luciferase activity is quantified using Steady-Glo reagent kit (Promega, Madison, Wis.) as per manufacturer's specifications.

Where [2] appears, read: no effect level: highest dose that did not cause hypercalcemia, oral gavage for 6 days, female DBF mice, serum ionized calcium.

Usually EC50 stands for the concentration at which the effect is half-maximal.

As for `CCC(CC)(c1ccc(OCC(O)C(C)(C)C)c(C)c1)c1ccc2cc(C(=O)O)ccc2c1` (single isomer, unassigned) [Ex. 2B, 6-{1-Ethyl-1-[4-(2-hydroxy-3,3-dimethyl-butoxy)-3-methyl-phenyl]-propyl}-naphthalene-2-carboxylic acid], in series [1] (female, DBF, mouse, in vivo, po, 6 days), the “Mouse Hypercal” value is 1000 µg/kg/day. Besides, the EC50 in the series with rat osteocalcin promoter amounted to 18.4 nM; on RXR-VDR heterodimer it was 25.3 nM.

In the case of `CCC(Oc1ccc(C(CC)(CC)c2ccc3cc(C(=O)N(C)CC(=O)O)ccc3c2)cc1C)C(O)C(C)(C)C` (stereo not drawn) [Ex. 8, N-methyl-2-[6-{1-ethyl-1-[4-(1-ethyl-2-hydroxy-3,3-dimethyl-butoxy)-3-methyl-phenyl]-propyl}-naphthalene-2-carbonyl-amino]acetic acid], the “Mouse Hypercal” value in series [1] (setting [2]) was 300 µg/kg/day. Moreover, the EC50 in the series with rat osteocalcin promoter (Rattus norvegicus, 48 h) stood at 0.6 nM; on RXR-VDR heterodimer it was 2 nM.

Consider `CCC(Oc1ccc(C(CC)(CC)c2ccc3cc(C(=O)NCC(=O)O)ccc3c2)cc1C)C(O)C(C)(C)C` (stereo not drawn) [Ex. 7, 2-[6-{1-ethyl-1-[4-(1-ethyl-2-hydroxy-3,3-dimethyl-butoxy)-3-methyl-phenyl]-propyl}-naphthalene-2-carbonylamino]acetic acid], for which the “Mouse Hypercal” value in series [1] (setting [2]) is 100 µg/kg/day. In addition, the EC50 in the series with rat osteocalcin promoter (Rattus norvegicus, 48 h) came to 0.7 nM; at RXR-VDR heterodimer, 2.6 nM.

With `CCC(CC)(c1ccc(OCC(=O)C(C)(C)C)c(C)c1)c1ccc2ccc(C(=O)O)cc2c1` [Ex. 6, 7-{1-[4-(3,3-Dimethyl-2-oxobutoxy)-3-methylphenyl]-1-ethylpropyl}naphthalene-2-carboxylic acid], the EC50 was determined as 104 nM with rat osteocalcin promoter (Rattus norvegicus, 48 h); 715 nM at RXR-VDR heterodimer; 714 nM at VDR.
